Entries after “also recorded” stand apart in the source; their conditions may differ.
Assays:
[1] = test system: HIV-1 clinical isolate in PBMCs; assay: HIV-1 RNA copy number (Amplicor HIV-1 Monitor) in supernatant of isolate-infected PBMC cultures; assay type: cell-based; conditions: for viral breakthrough during monotherapy: one week to one month
Protocol: (§1) Cell-free supernatants were used for p24 and HIV-1 RNA measurements. p24 core antigen in the supernatant was quantified by ELISA (Retrotek HIV-1 p24®; ZeptoMetrix Corp.; Buffalo, NY). HIV-1 RNA copy number in the supernatant of PBMC cultures and in plasma of trial subjects enrolled in the exploratory deferiprone trial was determined with a PCR-based and FDA-approved assay (Amplicor HIV-1 Monitor®; Roche Diagnostics Corp.; Indianapolis, IN). For clinical samples, the assay was used per the Standard Specimen Processing Procedure (sensitivity limit 400 copies/ml); for cell culture samples, the assay was used in both the Standard Specimen Processing and the UltraSensitive Specimen Processing Procedure (sensitivity limit 50 copies/ml). If not specified further, the term “log10” designates the amount of HIV-1 RNA in the dimensions [log10 / ml]. The Roche Amplicor HIV-1 DNA Test (Roche Diagnostics Corp.; Indianapolis, IN) was used for detection of HIV-1 DNA with the primer pair SK431/462, which amplifies a highly conserved region of the gag genome of HIV-1 subtype B DNA. Results are shown per the assay’s optical readings of a chromogenic reaction that relates absorbance at 450 nm to the HIV-1 DNA copy number and is calibrated by assay-internal copy controls (A450 < 0.350, HIV-1 DNA absent; A450 ≥ 3.0, HIV-1 DNA present in excess of 20 copies; A450 between 0.350 and 3.0, HIV-1 DNA copy number per copy controls). Apoptotic DNA fragmentation was quantified flow-cytometrically, using a terminal deoxynucleotide transferase dUTP nick end-labeling (TUNEL) assay (APO-BRDU™; Phoenix Flow Systems; San Diego, CA). All experiments and assays were performed at least in duplicate.
(§2) The antiretroviral activity of deferiprone was tested in primary cultures of PBMCs, infected in vitro with clinical isolate or mock-infected with clinical isolate-identical cell- and virus-free medium as described. Briefly, to approximate the bi-compartmental mode of HIV-1 infection in vivo, which comprises a cell-generative compartment that provides non-infected but HIV-1 susceptible cells, and an HIV-generative compartment in which they become infected, the cultures were replenished as described with freshly obtained uninfected primary cells and medium at regular intervals, assuring identical cell number in both the treated and control cultures by computerized trypan blue exclusion analysis (Vi-CELL™; Beckman Coulter, Miami, FL); deferiprone concentrations were adjusted as indicated. This model allowed for months-long monitoring of HIV-1 parameters in productively infected cultures.

in vitro = assay type: cell-based; conditions: human
Protocol: as §2

[2] = target: T1, deoxyhypusyl hydroxylase (DOHH) (Homo sapiens, UniProt Q9BU89); assay: Cellular DOHH activity by metabolic labeling of deoxyhypusyl-eIF5A and hypusyl-eIF5A with (1,8-3H)spermidine; assay type: cell-based
T1 construct: endogenous in cells; host or cells: single-donor primary peripheral blood mononuclear cells (PBMCs), uninfected or infected with a clinical HIV-1 isolate
T1 sequence (Q9BU89 1-302): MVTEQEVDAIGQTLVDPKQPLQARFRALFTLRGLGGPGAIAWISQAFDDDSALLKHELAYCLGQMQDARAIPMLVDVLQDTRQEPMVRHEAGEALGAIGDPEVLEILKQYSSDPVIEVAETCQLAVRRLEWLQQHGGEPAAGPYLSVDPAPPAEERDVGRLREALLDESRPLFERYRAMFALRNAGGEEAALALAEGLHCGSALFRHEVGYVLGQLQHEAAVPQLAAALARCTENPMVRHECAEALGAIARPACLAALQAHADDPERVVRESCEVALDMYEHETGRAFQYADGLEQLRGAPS
Protocol: (§3) Fig 2 Effect of deferiprone in HIV-infected primary cells: Apoptotic DNA fragmentation, deoxyhypusyl-eIF5A accumulation, and DOHH activity. Apoptotic DNA fragmentation (Panel A) was detected by terminal deoxynucleotide transferase dUTP nick end labeling (TUNEL) of single-donor peripheral blood mononuclear cells, maintained in short-term non-replenished cultures as described. Cells were left uninfected and/or untreated; or infected immediately after plating with clinical HIV-1 isolate and 12 hours after infection, treated with 200 μM deferiprone. […] The dose-effect curve for inhibition of cellular DOHH by increasing deferiprone concentrations in short-term non-replenished single-donor cultures (Panel C) was calculated from the accumulation of its ^3H-labeled substrate and the decrease of its ^3H-labeled product; error bars are at the size of the graph symbols and not shown. Black, HIV-infected untreated cells; green, uninfected untreated cells; blue, uninfected deferiprone-treated cells; red, HIV-infected deferiprone-treated cells; large triangles, HIV-infected cells (red) or uninfected cells (blue) treated with 200 μM deferiprone.
Metabolic labeling with (1,8-^3H)spermidine at 5 μCi/ml for 18 hours was performed as described in primary cell cultures of the same volume, viability by dye exclusion, cell number, and donor origin. Following acid hydrolysis of each sample for release of radiolabeled hypusine and deoxyhypusine, separation by ion-exchange chromatography, and liquid scintillation measurement of incorporated label, 18 fractions were collected and the counts in the eluted fractions were proportionally adjusted to a total of 10,000 cpm per sample. This normalization adjusts for variances in the radioactivity of different samples and allows direct comparison of their hypusine-deoxyhypusine elution profiles. Only the hypusine- / deoxyhypusine-containing fractions (6 through 14) were used for analysis.

[3] = test system: HIV-infected peripheral blood mononuclear cells; assay: Apoptotic DNA fragmentation by TUNEL in single-donor non-replenished PBMC cultures; assay type: cell-based, human; conditions: 200 μM deferiprone
Protocol: as §3, with “Black, HIV-infected untreated cells; green, uninfected untreated cells; blue, uninfected deferiprone-treated cells; red, HIV-infected deferiprone-treated cells; large triangles, HIV-infected cells (red) or uninfected cells (blue) treated with 200 μM deferiprone.” left out
Cell-free supernatants were used for p24 and HIV-1 RNA measurements. p24 core antigen in the supernatant was quantified by ELISA (Retrotek HIV-1 p24®; ZeptoMetrix Corp.; Buffalo, NY). HIV-1 RNA copy number in the supernatant of PBMC cultures and in plasma of trial subjects enrolled in the exploratory deferiprone trial was determined with a PCR-based and FDA-approved assay (Amplicor HIV-1 Monitor®; Roche Diagnostics Corp.; Indianapolis, IN). […]

[4] = test system: HIV-1 clinical isolate in PBMCs; assay: p24 core antigen ELISA in supernatant of isolate-infected, long-term replenished primary cell cultures; assay type: cell-based; conditions: for p24, level relative to untreated controls: after two weeks, stably infected replenished primary cell cultures
Protocol: as §1, §2

HIV-1 DNA = HIV-1 DNA (Roche Amplicor HIV-1 DNA Test) in isolate-infected primary cell cultures; assay type: cell-based; conditions: 200 μM deferiprone
Protocol: Cell-free supernatants were used for p24 and HIV-1 RNA measurements. p24 core antigen in the supernatant was quantified by ELISA (Retrotek HIV-1 p24®; ZeptoMetrix Corp.; Buffalo, NY). HIV-1 RNA copy number in the supernatant of PBMC cultures and in plasma of trial subjects enrolled in the exploratory deferiprone trial was determined with a PCR-based and FDA-approved assay (Amplicor HIV-1 Monitor®; Roche Diagnostics Corp.; Indianapolis, IN). For clinical samples, the assay was used per the Standard Specimen Processing Procedure (sensitivity limit 400 copies/ml); for cell culture samples, the assay was used in both the Standard Specimen Processing and the UltraSensitive Specimen Processing Procedure (sensitivity limit 50 copies/ml). If not specified further, the term “log10” designates the amount of HIV-1 RNA in the dimensions [log10 / ml]. […] Results are shown per the assay’s optical readings of a chromogenic reaction that relates absorbance at 450 nm to the HIV-1 DNA copy number and is calibrated by assay-internal copy controls (A450 < 0.350, HIV-1 DNA absent; A450 ≥ 3.0, HIV-1 DNA present in excess of 20 copies; A450 between 0.350 and 3.0, HIV-1 DNA copy number per copy controls). Apoptotic DNA fragmentation was quantified flow-cytometrically, using a terminal deoxynucleotide transferase dUTP nick end-labeling (TUNEL) assay (APO-BRDU™; Phoenix Flow Systems; San Diego, CA). […]

[5] = after withdrawal of 100 μM deferiprone

Cc1c(O)c(=O)ccn1C [deferiprone, 3-hydroxy-1,2-dimethylpyridin-4-one]
HIV-1 RNA decrease below the pre-treatment level of ≥10^6 copies/ml ([1]; 100 μM deferiprone, on-drug): one order of magnitude
HIV-1 RNA new steady state ([1]; 100 μM deferiprone, on-drug): ~10^5 copies/ml
viral breakthrough during monotherapy ([1]; 100 μM deferiprone, up to 35 days): did not elicit viral breakthrough; also recorded: did not allow viral breakthrough
viral breakthrough during monotherapy ([1]; 200 μM (supra-threshold) deferiprone, up to 35 days / 5 weeks): did not allow viral breakthrough; also recorded: did not elicit viral breakthrough; also recorded: neither allowed breakthrough
time to reach HIV-1 RNA ≤10^3 copies/ml ([1]; 200 μM deferiprone): 2–4 weeks
HIV-1 RNA decrease below its initial range ([1]; 200 μM deferiprone (Fig 1B)): at least three orders of magnitude
HIV-1 RNA level reached on-drug ([1]; 200 μM deferiprone, depending on combination of viral isolate and PBMCs): ≤ 10^3 copies/ml
decline of HIV-1 RNA production ([1]; 200 μM deferiprone, repeated experiments): 3 log
off-drug period in which HIV-1 RNA production failed to resume ([1]; after 200 μM deferiprone, replenished with fresh CD4+ lymphocytes (Fig 1)): at least 10 days
post-treatment period to reacquire the original level of ≥10^6 copies/ml [1, 5]: about 5 days
rate of HIV-1 RNA rebound to the pre-treatment range [1, 5]: +0.24 log10/ml/day
viral copy number ([1]; below 100 μM deferiprone): only marginally affected
HIV-1 RNA reduction relative to untreated cultures ([1]; off-drug after 200 μM deferiprone, apparently stable): ~ 4 log
viability at 200 µM (in vitro): ≥ 95%
viability at 200 μM (in vitro): > 95%
newly synthesized deoxyhypusyl-eIF5A accumulated in HIV-infected treated cells, higher than in uninfected treated cultures ([2]; 200 μM deferiprone): ~40%
DOHH activity in the primary cells ([2]; at ≤100 μM deferiprone, infected and uninfected cultures): ≥ 90%
cellular DOHH activity ([2]; at ≥200 μM deferiprone, infected and uninfected cultures): ≤ 8%
DNA fragmentation in infected treated relative to infected untreated cultures ([3]; at 120 hours): twice
DNA fragmentation in infected treated relative to infected untreated cultures ([3]; at 144 hours, P = 0.001): three times as high
p24 after escalation of concentration ([4]; 50 μM for 30 days followed by escalation to 200 μM (data not shown)): complete suppression of p24 within one week
p24 on-drug ([4]; 100 μM deferiprone): declined to the limit of detectability
p24, level relative to untreated controls ([4]; 100 μM deferiprone): ≤ 10%
p24, level relative to untreated controls ([4]; 200 μM deferiprone): ≤ 10%
extracellular p24 after deferiprone withdrawal ([4]; after 100 μM deferiprone): increased rapidly to levels higher than pre-treatment
p24 off-drug ([4]; after 200 μM deferiprone): did not rebound off-drug
p24 expression ([4]; below 100 μM deferiprone): only marginally affected
decline of HIV-1 DNA (HIV-1 DNA): reached the lower limit of detectability
final A450 readings of the HIV-1 DNA test (HIV-1 DNA; 10 days off-drug): negative for the continued presence of HIV-1 DNA
